Source: publication PMC10746543, “Design principles for cyclin K molecular glue degraders” (Nature Chemical Biology, 2023)
Where “and” joins values, the source holds several entries; their conditions need not be identical. Equal entries are not always repeated. Where two headings read alike, the source gives them in different places.

What was measured:
CDK12–cyclin K and DDB1 = target: T1, CDK12–cyclin K and DDB1 (Homo sapiens, UniProt Q16531+Q9NYV4, K965R); experiment: TR-FRET ternary complex formation assay (compound titration); format: binding; conditions: for TR-FRET signal at compound concentration: replicate titrations
T1 construct: His6–CDK12 (a.a. 713–1,052); full-length or beta-propeller B domain deletion (ΔBPB: a.a. 396–705 deleted) constructs of His6–DDB1ΔBPB, StrepII–Avi–DDB1, or His6–Spy–DDB1; made in house; host or cells: Trichoplusia ni High Five insect cells (baculovirus)
T1 sequence (Q9NYV4 713-1052 K965R): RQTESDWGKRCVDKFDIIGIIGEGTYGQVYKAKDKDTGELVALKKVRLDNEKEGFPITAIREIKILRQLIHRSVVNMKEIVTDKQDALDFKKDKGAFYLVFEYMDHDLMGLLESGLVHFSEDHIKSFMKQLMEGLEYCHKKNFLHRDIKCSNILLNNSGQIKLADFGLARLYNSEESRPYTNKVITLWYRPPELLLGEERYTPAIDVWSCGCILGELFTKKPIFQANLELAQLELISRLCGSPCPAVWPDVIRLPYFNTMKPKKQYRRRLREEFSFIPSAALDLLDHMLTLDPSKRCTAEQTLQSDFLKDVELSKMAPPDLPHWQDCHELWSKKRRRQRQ
T1 sequence (O75909 1-267 partner): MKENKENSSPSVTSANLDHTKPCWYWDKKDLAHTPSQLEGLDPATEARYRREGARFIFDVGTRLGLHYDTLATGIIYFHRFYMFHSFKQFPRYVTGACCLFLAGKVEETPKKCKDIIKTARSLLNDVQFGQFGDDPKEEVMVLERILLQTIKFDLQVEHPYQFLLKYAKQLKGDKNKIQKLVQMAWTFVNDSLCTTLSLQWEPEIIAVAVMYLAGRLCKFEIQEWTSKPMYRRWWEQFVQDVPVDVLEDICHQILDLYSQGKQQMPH
T1 sequence (Q16531 whole entry): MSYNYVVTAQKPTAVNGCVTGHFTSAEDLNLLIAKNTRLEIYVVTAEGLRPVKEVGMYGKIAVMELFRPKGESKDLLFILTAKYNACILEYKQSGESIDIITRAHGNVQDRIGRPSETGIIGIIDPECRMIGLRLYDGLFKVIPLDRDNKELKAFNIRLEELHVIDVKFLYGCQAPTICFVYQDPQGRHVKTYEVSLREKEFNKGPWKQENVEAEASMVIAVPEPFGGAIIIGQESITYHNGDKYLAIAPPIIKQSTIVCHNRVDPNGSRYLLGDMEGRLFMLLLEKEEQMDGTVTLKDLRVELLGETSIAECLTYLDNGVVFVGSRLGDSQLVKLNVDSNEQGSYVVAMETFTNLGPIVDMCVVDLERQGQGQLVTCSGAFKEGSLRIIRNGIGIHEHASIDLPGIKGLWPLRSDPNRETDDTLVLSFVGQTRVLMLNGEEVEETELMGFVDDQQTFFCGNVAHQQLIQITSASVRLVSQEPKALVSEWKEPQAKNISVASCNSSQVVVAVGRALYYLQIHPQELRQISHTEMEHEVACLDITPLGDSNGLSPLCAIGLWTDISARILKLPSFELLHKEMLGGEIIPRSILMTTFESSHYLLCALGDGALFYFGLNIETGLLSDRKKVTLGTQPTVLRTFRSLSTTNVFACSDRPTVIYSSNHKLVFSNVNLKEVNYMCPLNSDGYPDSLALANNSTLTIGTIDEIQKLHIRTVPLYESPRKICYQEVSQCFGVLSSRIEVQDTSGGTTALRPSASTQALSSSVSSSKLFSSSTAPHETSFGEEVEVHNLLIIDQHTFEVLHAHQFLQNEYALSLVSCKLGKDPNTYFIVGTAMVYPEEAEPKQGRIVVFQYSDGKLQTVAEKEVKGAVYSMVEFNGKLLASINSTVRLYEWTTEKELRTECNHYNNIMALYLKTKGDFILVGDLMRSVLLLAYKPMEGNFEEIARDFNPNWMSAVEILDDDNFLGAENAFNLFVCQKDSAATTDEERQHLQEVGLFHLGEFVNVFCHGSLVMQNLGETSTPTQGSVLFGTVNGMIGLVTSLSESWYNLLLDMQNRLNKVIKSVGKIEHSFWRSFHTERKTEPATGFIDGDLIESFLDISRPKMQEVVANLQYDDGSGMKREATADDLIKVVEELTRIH
Procedure, shortened: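 TR-FRET ratio 520/490 nm; 70 μs delay before read to suppress background.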

[1] = tested on: cyclin K–eGFP degradation reporter; experiment: Cyclin K reporter stability analysis (dual-color cyclin K–eGFP reporter); format: cell-based, human; conditions: Supplementary Table 2; HEK293T cycK-eGFP reporter, 5 h; read-out: Cellular assays DC50
Procedure, shortened: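 Cells (HEK293T–Cas9, reporter-expressing) at 1 × 10^6 ml^−1; 5 h compound or DMSO; flow cytometry; gMFI eGFP ÷ mCherry on round mCherry-positive events; normalized to 3 DMSO controls.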

HEK293T cells = experiment: Drug sensitivity assay (CellTiter-Glo viability) with or without MLN4924 pretreatment; format: cell-based, human; conditions: Supplementary Table 2; for EC50: Homo sapiens, HEK-293T, HEK293T viability, 72 h, compound alone, read-out: Cellular assays EC50; for Toxicity rescue: MLN4924-mediated cytotoxicity rescue, 10 µM used where n.d.
Procedure, shortened: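 Luminescent ATP read-out (CellTiter-Glo) after 3 days of drug exposure, normalised to DMSO controls. Cells were HEK293T–Cas9, pretreated with 100 nM MLN4924 or DMSO for 2 h before drug dispensing.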

[2] = compound concentration 79.2001 nM
[3] = compound concentration 158.4 nM
[4] = compound concentration 309.6 nM
[5] = compound concentration 626.401 nM
[6] = compound concentration 1252.8 nM
[7] = compound concentration 9936.01 nM
[8] = compound concentration 20016 nM
[9] = in vitro complex formation, 50 nM CDK12–cyclin K, 100 nM DDB1, text and figures, read-out: TR-FRET EC50

SMILES | TR-FRET signal (CDK12–cyclin K and DDB1; compound concentration 4.68 nM) | TR-FRET signal (CDK12–cyclin K and DDB1; compound concentration 21.6 nM) | TR-FRET signal (CDK12–cyclin K and DDB1; compound concentration 36 nM) | TR-FRET signal (CDK12–cyclin K and DDB1; [2]) | TR-FRET signal (CDK12–cyclin K and DDB1; [3]) | TR-FRET signal (CDK12–cyclin K and DDB1; [4]) | TR-FRET signal (CDK12–cyclin K and DDB1; [5]) | TR-FRET signal (CDK12–cyclin K and DDB1; [6]) | TR-FRET signal (CDK12–cyclin K and DDB1; compound concentration 2448 nM) | TR-FRET signal (CDK12–cyclin K and DDB1; [7]) | TR-FRET signal (CDK12–cyclin K and DDB1; [8]) | EC50 (CDK12–cyclin K and DDB1; [9]) | DC50 [1] | EC50 (HEK293T cells) | Toxicity rescue (HEK293T cells) | TR-FRET signal, individual replicate (CDK12–cyclin K and DDB1; compound concentration 4.68 nM) | TR-FRET signal, individual replicate (CDK12–cyclin K and DDB1; compound concentration 21.6 nM) | TR-FRET signal, individual replicate (CDK12–cyclin K and DDB1; compound concentration 36 nM) | TR-FRET signal, individual replicate (CDK12–cyclin K and DDB1; [2]) | TR-FRET signal, individual replicate (CDK12–cyclin K and DDB1; [3]) | other results
CCOCCOCCNc1nc(N[C@H](CC)CO)nc2c1ncn2C(C)C [DS13] | 0.1269 and 0.1552 | 0.1368 and 0.156 | 0.1404 and 0.1564 | 0.1332 and 0.164 | 0.1494 and 0.1683 | 0.1517 and 0.1802 | 0.1772 and 0.1976 | 0.2017 and 0.2255 | 0.2403 and 0.2789 | 0.333 and 0.3875 | 0.3528 and 0.412 | 3.23 ± 0.959 µM | > 10 µM | > 10 µM | 0% |  |  |  |  |  | 
CC[C@H](CO)Nc1nc(NCc2ccc3cc(O)ccc3c2)c2ncn(C(C)C)c2n1 [DS14] | 0.1364 and 0.1548 | 0.1403 and 0.1585 | 0.1464 and 0.1703 | 0.164 and 0.1861 | 0.1899 and 0.214 | 0.2284 and 0.2573 | 0.2863 and 0.3257 | 0.3495 and 0.4048 | 0.4136 and 0.4783 | 0.5447 and 0.6287 | 0.6134 and 0.6953 | 2.36 ± 0.777 µM | > 10 µM | > 10 µM | 0% |  |  |  |  |  | 
CC[C@H](CO)Nc1nc(NCCCCCc2cccc3ccccc23)c2ncn(C(C)C)c2n1 [DS15] |  |  |  |  |  |  |  |  |  |  |  | 0.182 µM | > 10 µM | > 10 µM | 0% | 0.1682 and 0.1874 | 0.2977 and 0.3197 | 0.5215 and 0.541 | 0.8673 and 0.9745 | 1.23 and 1.324 | TR-FRET signal at compound concentration (CDK12–cyclin K and DDB1; compound concentration 4.68 nM): 0.1682 and 0.1874; TR-FRET signal at compound concentration (CDK12–cyclin K and DDB1; compound concentration 21.6 nM): 0.2977 and 0.3197; TR-FRET signal at compound concentration (CDK12–cyclin K and DDB1; compound concentration 36 nM): 0.5215 and 0.541; TR-FRET signal at compound concentration (CDK12–cyclin K and DDB1; [2]): 0.8673 and 0.9745; TR-FRET signal at compound concentration (CDK12–cyclin K and DDB1; [3]): 1.23 and 1.324; TR-FRET signal, individual replicate (CDK12–cyclin K and DDB1; [4]): 1.677 and 1.781; TR-FRET signal at compound concentration (CDK12–cyclin K and DDB1; [4]): 1.677 and 1.781; TR-FRET signal, individual replicate (CDK12–cyclin K and DDB1; [5]): 2.096 and 2.217; TR-FRET signal at compound concentration (CDK12–cyclin K and DDB1; [5]): 2.096 and 2.217; TR-FRET signal, individual replicate (CDK12–cyclin K and DDB1; [6]): 2.231 and 2.525; TR-FRET signal at compound concentration (CDK12–cyclin K and DDB1; [6]): 2.231 and 2.525; TR-FRET signal, individual replicate (CDK12–cyclin K and DDB1; compound concentration 2448 nM): 2.525 and 2.68; TR-FRET signal at compound concentration (CDK12–cyclin K and DDB1; compound concentration 2448 nM): 2.525 and 2.68; TR-FRET signal, individual replicate (CDK12–cyclin K and DDB1; [7]): 2.633 and 2.833; TR-FRET signal at compound concentration (CDK12–cyclin K and DDB1; [7]): 2.633 and 2.833; TR-FRET signal, individual replicate (CDK12–cyclin K and DDB1; [8]): 2.343 and 2.482; TR-FRET signal at compound concentration (CDK12–cyclin K and DDB1; [8]): 2.343 and 2.482; EC50 (CDK12–cyclin K and DDB1; sheet MOESM7, read-out: log TR-FRET EC50 (converted)): 0.182 µM
CC[C@H](CO)Nc1nc(NC)c2ncn(C(C)C)c2n1 [DS23] |  |  |  |  |  |  |  |  |  |  |  |  | > 10 µM | > 10 µM | 0% | 0.1301 and 0.1411 | 0.1343 and 0.1464 | 0.1332 and 0.1524 | 0.1391 and 0.1534 | 0.1406 and 0.1374 | TR-FRET signal, individual replicate (CDK12–cyclin K and DDB1; [4]): 0.0615 and 0.162; TR-FRET signal, individual replicate (CDK12–cyclin K and DDB1; [5]): 0.1683 and 0.1829; TR-FRET signal, individual replicate (CDK12–cyclin K and DDB1; [6]): 0.1869 and 0.2017; TR-FRET signal, individual replicate (CDK12–cyclin K and DDB1; compound concentration 2448 nM): 0.194 and 0.2082; TR-FRET signal, individual replicate (CDK12–cyclin K and DDB1; [7]): 0.2263 and 0.2491; TR-FRET signal, individual replicate (CDK12–cyclin K and DDB1; [8]): 0.2226 and 0.3132; DDB1–CDK12 complex formation, result in words (CDK12–cyclin K and DDB1; in vitro TR-FRET): did not appreciably promote the binding
